The results in this text go back to patent publication US10947239B2, “[1,2,4]triazolo[1,5-a]pyrimidin-7-yl compound” (Janssen Pharmaceutica NV, priority 2015, dated 2021).

Series [1] addresses Human recombinant PDE2A (hPDE2A) (Homo sapiens (Human), UniProt O00408). The series can be described thus: In vitro assay PDE2A (SPA, 3H-cGMP). Format: biochemical. How it is done: Human recombinant PDE2A (hPDE2A) was expressed in Sf9 cells using a recombinant […] baculovirus construct. […] Tested compounds were dissolved and diluted in 100% DMSO to a concentration 100 fold of the final concentration in the assay. Compound dilutions (0.4 μl) were added in 384 well plates to 20 μl of incubation buffer (50 mM Tris pH 7.8, 8.3 mM MgCl2, 1.7 mM EGTA). […] of hPDE2A enzyme in incubation buffer was added and the reaction was started by addition of 10 μl substrate to a final concentration of 10 μM cGMP and 0.01 μCi ^3H-cGMP. The reaction was incubated for 45 minutes at room temperature. […] After sedimentation of the beads during 30 minutes the radioactivity was measured in a Perkin Elmer Topcount scintillation counter and results were expressed as cpm. For blanc values the enzyme was omitted from the reaction and replaced by incubation buffer. Control values were obtained by addition of a final concentration of 1% DMSO instead of compound.

In series [2] the target is Human recombinant PDE3A (hPDE3A) (Homo sapiens, UniProt Q14432). Put plainly: In vitro assay PDE3A (SPA, 3H-cAMP). The settings on record: −log IC50 expressed in mol/L; method describes hPDE3A. The class given is biochemical. The procedure: Human recombinant PDE3A (hPDE3A) was supplied as a partially purified insect cell lysate by Scottish Biomedical, it was cloned from human brain and expressed in Sf9 cells. Tested compounds were dissolved and diluted in 100% DMSO to a concentration 100 fold of the final concentration in the assay. Compound dilutions (0.4 μl) were added in 384 well plates to 20 μl of incubation buffer (50 mM Tris pH 7.8, 8.3 mM MgCl2, 1.7 mM EGTA). 10 μl of hPDE3A enzyme in incubation buffer was added and the reaction was started by addition of 10 μl substrate to a final concentration of 0.4 μM cAMP and 2.4 μCi/ml [^3H]-cAMP. The reaction was incubated for 60 min at room temperature. After incubation, the reaction was stopped with 20 μl of stop solution consisting of 17.8 mg/ml PDE SPA (scintillation proximity assay) beads supplemented with 200 mM ZnCl2. After sedimentation of the beads during 30 min the radioactivity was measured in a Perkin Elmer Topcount scintillation counter and results were expressed as cpm. For blanc values the enzyme was omitted from the reaction and replaced by incubation buffer. Control values were obtained by addition of a final concentration of 1% DMSO instead of compound. […]

Series [3] has as its target Rat recombinant PDE10A (rPDE10A2) (Rattus norvegicus (Rat), UniProt Q9QYJ6). Put plainly: In vitro assay PDE10A (SPA, 3H-cAMP). The class given is biochemical. Conditions: −log IC50 expressed in mol/L. The procedure:
Rat recombinant PDE10A (rPDE10A2) was expressed in Sf9) cells using a recombinant rPDE10A baculovirus construct. Cells were harvested after 48 h of infection and the rPDE10A protein was purified by metal chelate chromatography on Ni-sepharose 6FF. Tested compounds were dissolved and diluted in 100% DMSO to a concentration 100 fold of the final concentration in the assay. Compound dilutions (0.4 μl) were added in 384 well plates to 20 μl of incubation buffer (50 mM Tris pH 7.8, 8.3 mM MgCl2, 1.7 mM EGTA). 10 μl of rPDE10A enzyme in incubation buffer was added and the reaction was started by addition of 10 μl substrate to a final concentration of 60 nM cAMP and 0.008 μCi ^3H-cAMP. The reaction was incubated for 60 minutes at room temperature. After incubation, the reaction was stopped with 20 μl of stop solution consisting of 17.8 mg/ml PDE SPA (scintillation proximity assay) beads. After sedimentation of the beads during 30 minutes the radioactivity was measured in a Perkin Elmer Topcount scintillation counter and results were expressed as cpm. For blanc values the enzyme was omitted from the reaction and replaced by incubation buffer. Control values were obtained by addition of a final concentration of 1% DMSO instead of compound. […]

The test system of series [4] is Marshall Beagle dogs. Put plainly: Single dose PK/PD PDE2i dog study. Format: in vivo. The source says: For these studies male and female Marshall Beagle dogs (1-6 y) were used: 2 males and 2 females per treatment group. Cerebrospinal fluid (CSF) was sampled from the lateral ventricle via a needle guide cannula in instrumented conscious animals.
Baseline CSF and blood samples were taken 2 to 5 days before dosing. The dogs are fasted overnight and the next morning dosed on an empty stomach (orally by gavage). At predetermined time points after dosing blood and/or CSF was collected for the measurement of compound levels and cGMP. Analysis of cGMP was done by LCMS/MS: 25 μl CSF was diluted with 125 μl artificial CSF (STIL (20 ng/ml)), centrifugated and 25 μl was injected. The systems used were: a Shimadzu SIL-30 UPLC-system (Hypercarb (50 mm×1 mm (3 μm)) column, basic (10 mM ammonium carbonate) aqueous-acetonitrile gradient (5% to 98% in 5.5 minutes) at a flow-rate of 250 μl/min) and an API Sciex 5500 system equiped with an ESI source (selective MRM transition (m/z 346.1→152.1 (75 msec dwelltime)). The results of this study are summarized in FIG. 7. After a single dose of compound 1 the following observations were made: slight to moderate tremors in 3/8 animals at 0.5 mg/kg; sedation and/or tremors in 6 out of 7 animals at 1 mg/kg (one animal was not dosed due to limited stock of the compound). […] Limited individual data in the vehicle group of PDE2 H-2 (n=2 at 1, 4 and 8 h) due to analytical errors.

The subject of series [5] is dentate gyrus of anesthetized adult Sprague Dawley. Put plainly: LTP / synaptic plasticity in dentate gyrus of anesthetized rats. The class given is in vivo, rat.
[6] abbreviates: 40 mg/kg SC, 90-120 min post-tetanization, relative to baseline 100%.

SMILES strings stand for the structures. Bounds are passed on as bounds.

Sequence of Human recombinant PDE2A (hPDE2A) (O00408 whole entry): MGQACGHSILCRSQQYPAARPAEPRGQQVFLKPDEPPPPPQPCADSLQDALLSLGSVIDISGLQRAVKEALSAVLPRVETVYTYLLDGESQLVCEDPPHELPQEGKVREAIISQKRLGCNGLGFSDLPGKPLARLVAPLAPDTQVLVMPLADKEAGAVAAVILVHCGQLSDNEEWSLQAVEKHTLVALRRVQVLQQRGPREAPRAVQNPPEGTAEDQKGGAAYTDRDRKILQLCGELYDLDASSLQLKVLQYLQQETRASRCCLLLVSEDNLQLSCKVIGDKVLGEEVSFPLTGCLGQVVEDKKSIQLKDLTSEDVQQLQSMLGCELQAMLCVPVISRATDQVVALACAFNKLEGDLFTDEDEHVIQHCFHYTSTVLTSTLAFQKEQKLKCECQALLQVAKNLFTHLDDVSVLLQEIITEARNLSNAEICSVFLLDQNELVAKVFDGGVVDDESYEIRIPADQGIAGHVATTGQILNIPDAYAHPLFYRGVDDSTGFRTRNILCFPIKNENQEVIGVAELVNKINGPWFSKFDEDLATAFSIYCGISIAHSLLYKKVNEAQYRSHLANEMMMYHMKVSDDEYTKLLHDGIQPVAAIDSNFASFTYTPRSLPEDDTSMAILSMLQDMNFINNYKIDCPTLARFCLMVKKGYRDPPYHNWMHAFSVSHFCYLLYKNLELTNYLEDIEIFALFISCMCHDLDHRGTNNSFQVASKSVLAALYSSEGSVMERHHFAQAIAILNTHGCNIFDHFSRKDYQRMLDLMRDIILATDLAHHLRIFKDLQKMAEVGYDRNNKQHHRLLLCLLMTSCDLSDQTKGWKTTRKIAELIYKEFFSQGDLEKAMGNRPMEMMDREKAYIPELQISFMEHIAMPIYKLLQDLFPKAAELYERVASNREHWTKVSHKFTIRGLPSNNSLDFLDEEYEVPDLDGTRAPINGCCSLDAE
Sequence of Rat recombinant PDE10A (rPDE10A2) (Q9QYJ6 whole entry): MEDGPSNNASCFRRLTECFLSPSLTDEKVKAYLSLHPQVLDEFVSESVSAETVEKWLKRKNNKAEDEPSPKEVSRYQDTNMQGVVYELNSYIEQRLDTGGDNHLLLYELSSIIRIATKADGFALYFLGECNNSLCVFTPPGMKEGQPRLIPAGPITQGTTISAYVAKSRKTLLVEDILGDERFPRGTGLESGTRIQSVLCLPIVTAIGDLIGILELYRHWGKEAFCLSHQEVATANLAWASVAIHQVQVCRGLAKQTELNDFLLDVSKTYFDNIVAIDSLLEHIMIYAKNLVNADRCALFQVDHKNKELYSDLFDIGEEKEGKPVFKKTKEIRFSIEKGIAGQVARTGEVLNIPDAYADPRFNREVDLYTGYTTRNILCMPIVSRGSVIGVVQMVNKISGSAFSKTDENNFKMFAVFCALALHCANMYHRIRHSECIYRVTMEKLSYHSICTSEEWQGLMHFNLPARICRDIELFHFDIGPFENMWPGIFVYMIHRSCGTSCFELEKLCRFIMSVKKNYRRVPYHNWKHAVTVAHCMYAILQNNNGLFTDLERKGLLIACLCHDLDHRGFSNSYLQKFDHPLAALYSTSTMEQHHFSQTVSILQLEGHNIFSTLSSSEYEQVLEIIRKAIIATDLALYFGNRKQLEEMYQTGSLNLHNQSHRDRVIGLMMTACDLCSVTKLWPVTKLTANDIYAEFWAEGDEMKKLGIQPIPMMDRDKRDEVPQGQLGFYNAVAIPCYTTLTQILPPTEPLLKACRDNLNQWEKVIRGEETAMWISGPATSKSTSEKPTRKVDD
Sequence of Human recombinant PDE3A (hPDE3A) (Q14432 whole entry, looked up): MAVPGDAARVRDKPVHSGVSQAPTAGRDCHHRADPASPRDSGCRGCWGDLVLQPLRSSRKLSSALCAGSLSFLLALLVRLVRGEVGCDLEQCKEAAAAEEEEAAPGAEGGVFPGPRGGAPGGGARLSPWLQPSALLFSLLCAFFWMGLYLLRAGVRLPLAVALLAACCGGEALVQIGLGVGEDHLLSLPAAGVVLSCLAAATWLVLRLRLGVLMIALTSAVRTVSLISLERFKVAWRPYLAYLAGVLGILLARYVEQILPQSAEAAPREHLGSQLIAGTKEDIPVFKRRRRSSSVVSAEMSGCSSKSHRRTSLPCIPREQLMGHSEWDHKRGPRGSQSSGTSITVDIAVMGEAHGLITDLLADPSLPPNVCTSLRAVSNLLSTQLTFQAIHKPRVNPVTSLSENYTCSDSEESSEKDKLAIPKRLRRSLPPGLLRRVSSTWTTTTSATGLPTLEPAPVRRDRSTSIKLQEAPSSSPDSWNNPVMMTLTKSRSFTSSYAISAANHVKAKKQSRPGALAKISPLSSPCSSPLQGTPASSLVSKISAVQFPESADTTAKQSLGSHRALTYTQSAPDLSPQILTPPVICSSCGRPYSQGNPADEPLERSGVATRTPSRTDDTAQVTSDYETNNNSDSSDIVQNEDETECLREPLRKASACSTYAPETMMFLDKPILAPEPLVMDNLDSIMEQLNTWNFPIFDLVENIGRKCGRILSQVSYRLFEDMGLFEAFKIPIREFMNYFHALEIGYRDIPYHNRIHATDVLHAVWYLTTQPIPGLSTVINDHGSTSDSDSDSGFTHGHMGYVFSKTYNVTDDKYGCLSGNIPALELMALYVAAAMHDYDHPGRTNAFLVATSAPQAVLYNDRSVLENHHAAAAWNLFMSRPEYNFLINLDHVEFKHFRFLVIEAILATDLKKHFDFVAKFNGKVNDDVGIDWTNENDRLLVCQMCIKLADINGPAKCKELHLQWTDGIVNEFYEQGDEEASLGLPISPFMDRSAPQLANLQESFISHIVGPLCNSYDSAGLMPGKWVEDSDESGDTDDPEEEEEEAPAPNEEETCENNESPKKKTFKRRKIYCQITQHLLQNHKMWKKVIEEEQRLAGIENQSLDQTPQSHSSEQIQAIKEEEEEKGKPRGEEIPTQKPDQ

As a reminder, the IC50 is the midpoint of a concentration-inhibition curve. Turning to `Cc1cc(C(=O)N2CC[C@@H](C)[C@H](c3cc(C(F)F)nc4ncnn34)C2)cc(C)n1` [Compound 1], the IC50 in series [1] (hPDE2A, 10 μM cGMP) was determined as 0.95 nM. Also, the “pIC50 (PDE2A)” value in series [1] (−log IC50 expressed in mol/L) is given as 9.07. Further, the “pIC50 PDE3B” value in series [2] is on record as 5.21. In addition, in series [3], the “pIC50 PDE10A2” value is recorded as 7.06. Further, the “Plasma pharmacokinetics dose linearity” value in series [4] (single oral dose) was “non-dose linearity”. Also, in series [4] (single oral dose 0.5 mg/kg), the “slight to moderate tremors” value is reported as 3/8. In series [4] (single oral dose 1 mg/kg), the sedation and/or tremors is reported as 6 out of 7. Moreover, in series [4] (single oral dose, CSF from lateral ventricle), the “cGMP in the CSF” value is “dose related increase”. Further, the PSA slopes in series [5] (40 mg/kg SC, 0-30 min after tetanization, relative to baseline 100%) is 164±13%. In series [5] (setting [6]), this molecule yielded a PSA amplitude of 179±20% and a fEPSP slope of 137±24%. Also, the “duration of enhanced synaptic potentiation” value in series [5] (40 mg/kg SC, LTP induction paradigm) is listed as more than 2 h. Moreover, the Basal synaptic transmission result in series [5] (baseline pre-tetanus, versus vehicle-treated control) is recorded as “not affected”. Also, the LTP in vivo entry in series [5] (overall conclusion) is given as “facilitates LTP in vivo”.
